Laboratory results taken from US20250250230A1, “HETEROCYCLIC COMPOUND” (TAKEDA PHARMACEUTICAL COMPANY LIMITED, priority 2022, published 2025).

Target: T1, human orexin type 2 receptor (Homo sapiens, UniProt O43614)
T1 construct: expressed in transfected cells
T1 sequence (O43614 1-444): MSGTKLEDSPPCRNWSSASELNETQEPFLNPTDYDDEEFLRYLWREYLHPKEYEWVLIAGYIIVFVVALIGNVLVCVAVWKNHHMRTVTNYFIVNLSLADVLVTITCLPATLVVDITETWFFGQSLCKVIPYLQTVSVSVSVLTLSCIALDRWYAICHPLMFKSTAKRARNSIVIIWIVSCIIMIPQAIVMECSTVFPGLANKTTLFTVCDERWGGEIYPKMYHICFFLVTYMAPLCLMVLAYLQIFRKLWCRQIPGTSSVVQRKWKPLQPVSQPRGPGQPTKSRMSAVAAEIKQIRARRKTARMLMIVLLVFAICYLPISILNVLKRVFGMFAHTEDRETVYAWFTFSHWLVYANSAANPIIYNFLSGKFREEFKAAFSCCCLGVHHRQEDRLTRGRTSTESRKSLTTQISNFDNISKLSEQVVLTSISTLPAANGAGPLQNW
Test: Measurement of orexin type 2 receptor agonist activity (calcium fluorescence, Fluo-4 AM, FDSS)
Assay type: cell-based
Settings: test compound 3 μM; CHO cells expressing human OX2 receptor; DMSO = 0%, orexin A (human) = 100%
How it was run: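 Agonist response scaled between vehicle (0%) and human orexin A at 10 nM final (100%), from 2-min kinetic Fluo-4 fluorescence reads. Stable hOX2R CHO-K1 clone, dye-loaded in HBSS/20 mM HEPES/0.1% BSA with 1.25 mM probenecid before compound addition.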

SMILES | OX2R agonist activity (3 μM, %) [%]
CS(=O)(=O)NC1CCCN(C(=O)C2CC2c2ccccc2-c2cc(F)ccc2F)C1 (racemic) [Example 65, a mixture of rac-N-{(3R)-1-[(1R,2R)-2-(2′,5′-difluoro[1,1′-biphenyl]-2-yl)cyclopropane-1-carbonyl]piperidin-3-yl}methanesulfonamide and rac-N-{(3S)-1-[(1R,2R)-2-(2′,5′-difluoro[1,1′-biphenyl]-2-yl)cyclopropane-1-carbonyl]piperidin-3-yl}methanesulfonamide] | 83
CCS(=O)(=O)NC[C@@H]1[C@H](F)CN1C(=O)C1CC1(F)c1ccccc1-c1ccccc1F (stereo partly drawn) [Example 442, N-({(2R,3R)-3-fluoro-1-[(1R,2R)-2-fluoro-2-(2′-fluoro[1,1′-biphenyl]-2-yl)cyclopropane-1-carbonyl]azetidin-2-yl}methyl)ethanesulfonamide, or N-({(2R,3R)-3-fluoro-1-[(1S,2S)-2-fluoro-2-(2′-fluoro[1,1′-biphenyl]-2-yl)cyclopropane-1-carbonyl]azetidin-2-yl}methyl)ethanesulfonamide] | 100
O=C([C@@H]1C[C@@]1(F)c1ccc(F)cc1-c1c(F)cccc1F)N1C[C@@H](F)[C@H]1CNS(=O)(=O)C(F)(F)F [Example 449, 1,1,1-trifluoro-N-({(2R,3R)-3-fluoro-1-[(1S,2S)-2-fluoro-2-(2′,5,6′-trifluoro[1,1′-biphenyl]-2-yl)cyclopropane-1-carbonyl]azetidin-2-yl}methyl)methanesulfonamide] | 94
CCS(=O)(=O)NC1CCCN(C(=O)C2CC2c2ccccc2-c2c(F)cccc2F)CC1 (racemic) [Example 112, a mixture of rac-N-{(4R)-1-[(1R,2R)-2-(2′,6′-difluoro[1,1′-biphenyl]-2-yl)cyclopropane-1-carbonyl]azepan-4-yl}ethanesulfonamide and rac-N-{(4S)-1-[(1R,2R)-2-(2′,6-difluoro[1,1′-biphenyl]-2-yl)cyclopropane-1-carbonyl]azepan-4-yl}ethanesulfonamide] | 101
CS(=O)(=O)NC1CCN(C(=O)C2CC2c2ccccc2-c2c(F)cccc2F)C1 (racemic) [Example 4, a mixture of rac-N-{(3R)-1-[(1R,2R)-2-(2′,6′-difluoro[1,1′-biphenyl]-2-yl)cyclopropane-1-carbonyl]pyrrolidin-3-yl}methanesulfonamide and rac-N-{(3S)-1-[(1R,2R)-2-(2′,6′-difluoro[1,1′-biphenyl]-2-yl)cyclopropane-1-carbonyl]pyrrolidin-3-yl}methanesulfonamide] | 102
Cc1ccc(C2CC2C(=O)N2CCC(NS(C)(=O)=O)C2)c(-c2ccccc2F)c1 (racemic) [Example 209, a mixture of rac-N-{(3R)-1-[(1R,2R)-2-(2′-fluoro-5-methyl[1,1′-biphenyl]-2-yl)cyclopropane-1-carbonyl]pyrrolidin-3-yl}methanesulfonamide and rac-N-{(3S)-1-[(1R,2R)-2-(2′-fluoro-5-methyl[1,1′-biphenyl]-2-yl)cyclopropane-1-carbonyl]pyrrolidin-3-yl}methanesulfonamide] | 95
CC1C(C(=O)N2CC[C@H](NS(C)(=O)=O)C2)C1c1ccccc1-c1c(F)cccc1F (mixture of isomers) [Example 303, a mixture of N-{(3S)-1-[(1R,2R,3S)-2-(2′,6′-difluoro[1,1′-biphenyl]-2-yl)-3-methylcyclopropane-1-carbonyl]pyrrolidin-3-yl}methanesulfonamide and N-{(3S)-1-[(1S,2S,3R)-2-(2′,6′-difluoro[1,1′-biphenyl]-2-yl)-3-methylcyclopropane-1-carbonyl]pyrrolidin-3-yl}methanesulfonamide] | 99
CS(=O)(=O)NC1CCCCN(C(=O)C2CC2c2sccc2-c2c(F)cccc2F)C1 (racemic) [Example 233, a mixture of rac-N-[(3R)-1-{(1R,2R)-2-[3-(2,6-difluorophenyl)thiophen-2-yl]cyclopropane-1-carbonyl}azepan-3-yl]methanesulfonamide and rac-N-[(3S)-1-{(1R,2R)-2-[3-(2,6-difluorophenyl)thiophen-2-yl]cyclopropane-1-carbonyl}azepan-3-yl]methanesulfonamide] | 80
CS(=O)(=O)NC1CCN(C(=O)C2CC2c2ccccc2-c2ccccc2F)C1 (racemic) [Example 12, a mixture of rac-N-{(3R)-1-[(1R,2R)-2-(2′-fluoro[1,1′-biphenyl]-2-yl)cyclopropane-1-carbonyl]pyrrolidin-3-yl}methanesulfonamide and rac-N-{(3S)-1-[(1R,2R)-2-(2′-fluoro[1,1′-biphenyl]-2-yl)cyclopropane-1-carbonyl]pyrrolidin-3-yl}methanesulfonamide] | 66
CC(=O)[C@@H]1CN(C(=O)[C@@H]2C[C@@]2(F)c2ccccc2-c2c(F)cccc2F)[C@H]1CNS(C)(=O)=O [Example 406, N-({(2R,3R)-3-acetyl-1-[(1S,2S)-2-(2′,6′-difluoro[1,1′-biphenyl]-2-yl)-2-fluorocyclopropane-1-carbonyl]azetidin-2-yl}methyl)methanesulfonamide] | 50
CS(=O)(=O)N[C@@H]1CN(C(=O)[C@@H]2C[C@H]2c2ccccc2-c2c(F)cccc2F)CC(F)(F)C1 [Example 271, N-{(3S)-1-[(1R,2R)-2-(2′,6′-difluoro[1,1′-biphenyl]-2-yl)cyclopropane-1-carbonyl]-5,5-difluoropiperidin-3-yl}methanesulfonamide] | 87
CS(=O)(=O)NC1CN(C(=O)C2CC2c2ccccc2-c2c(F)cccc2F)CC1(F)F (racemic) [Example 130, a mixture of rac-N-{(3R)-1-[(1R,2R)-2-(2′,6′-difluoro[1,1′-biphenyl]-2-yl)cyclopropane-1-carbonyl]-4,4-difluoropyrrolidin-3-yl}methanesulfonamide and rac-N-{(3S)-1-[(1R,2R)-2-(2′,6′-difluoro[1,1′-biphenyl]-2-yl)cyclopropane-1-carbonyl]-4,4-difluoropyrrolidin-3-yl}methanesulfonamide] | 87
COC[C@@H]1CN(C(=O)[C@@H]2C[C@@]2(F)c2ccccc2-c2c(F)cccc2F)[C@@H]1CNS(C)(=O)=O [Example 397, N-{[(2S,3R)-1-[(1S,2S)-2-(2′,6′-difluoro[1,1′-biphenyl]-2-yl)-2-fluorocyclopropane-1-carbonyl]-3-(methoxymethyl)azetidin-2-yl]methyl}methanesulfonamide] | 84
CS(=O)(=O)N[C@@H]1CN(C(=O)[C@@H]2C[C@@]2(F)c2ccccc2-c2c(F)cccc2F)CC[C@H]1O [Example 348, N-{(3R,4R)-1-[(1S,2S)-2-(2′,6′-difluoro[1,1′-biphenyl]-2-yl)-2-fluorocyclopropane-1-carbonyl]-4-hydroxypiperidin-3-yl}methanesulfonamide] | 97
CC(C)S(=O)(=O)NC[C@@H]1[C@H](F)CN1C(=O)[C@@H]1C[C@@]1(F)c1ccc(F)cc1-c1c(F)cccc1F [Example 444, N-({(2R,3R)-3-fluoro-1-[(1S,2S)-2-fluoro-2-(2′,5,6′-trifluoro[1,1′-biphenyl]-2-yl)cyclopropane-1-carbonyl]azetidin-2-yl}methyl)propane-2-sulfonamide] | 96
CC(C)S(=O)(=O)N[C@@H](C)[C@@H]1CCN1C(=O)[C@@H]1C[C@@]1(F)c1ccccc1-c1c(F)cccc1F [Example 389, N-[(1S)-1-{(2S)-1-[(1S,2S)-2-(2′,6′-difluoro[1,1′-biphenyl]-2-yl)-2-fluorocyclopropane-1-carbonyl]azetidin-2-yl}ethyl]propane-2-sulfonamide] | 97
CS(=O)(=O)NC[C@H]1CN(C(=O)[C@@H]2C[C@H]2c2ccccc2-c2c(F)cccc2F)CCO1 [Example 282, N-({(2R)-4-[(1R,2R)-2-(2′,6′-difluoro[1,1′-biphenyl]-2-yl)cyclopropane-1-carbonyl]morpholin-2-yl}methyl)methanesulfonamide] | 87
CO[C@H]1C[C@H](NS(C)(=O)=O)CN(C(=O)[C@@H]2C[C@H]2c2ccccc2-c2c(F)cccc2F)C1 [Example 349, N-{(3S,5S)-1-[(1R,2R)-2-(2′,6′-difluoro[1,1′-biphenyl]-2-yl)cyclopropane-1-carbonyl]-5-methoxypiperidin-3-yl}methanesulfonamide] | 97
CC1(C(=O)N2CC(NS(C)(=O)=O)C(F)(F)C2)CC1c1ccccc1-c1c(F)cccc1F (stereo not drawn) [Example 248, N-{1-[2-(2′,6′-difluoro[1,1′-biphenyl]-2-yl)-1-methylcyclopropane-1-carbonyl]-4,4-difluoropyrrolidin-3-yl}methanesulfonamide optical isomer] | 98
